The values below come from US6831084B1, “Branched adamantyl and noradamantyl aryl- and aralkylpiperazines with serotonin 5-HT1A activity” (Wyeth, priority 1999, dated 2004).

Data set [1] has as its target T1, serotonin 5-HT1A receptor (Rattus norvegicus, UniProt P19327).
T1 construct: in rat hippocampal membrane homogenates; from tissue; host or cells: rat hippocampus (membrane homogenates)
T1 sequence (P19327 1-422): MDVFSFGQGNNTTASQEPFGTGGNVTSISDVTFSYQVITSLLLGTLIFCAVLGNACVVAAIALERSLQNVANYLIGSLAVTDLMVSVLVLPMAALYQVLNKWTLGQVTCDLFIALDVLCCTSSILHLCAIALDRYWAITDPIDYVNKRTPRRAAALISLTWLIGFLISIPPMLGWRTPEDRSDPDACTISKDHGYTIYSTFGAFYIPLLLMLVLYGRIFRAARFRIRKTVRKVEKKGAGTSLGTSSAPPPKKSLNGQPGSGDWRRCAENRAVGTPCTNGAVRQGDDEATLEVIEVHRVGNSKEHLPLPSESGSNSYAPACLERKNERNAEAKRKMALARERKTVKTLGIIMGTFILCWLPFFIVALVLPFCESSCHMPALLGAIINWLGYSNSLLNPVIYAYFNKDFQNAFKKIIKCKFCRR
Description: Displacement of [3H]-8-OH-DPAT from 5-HT1A receptor in rat hippocampal membrane homogenates. It counts as binding. As to conditions: [3H]-8-OH-DPAT displacement, read-out: 5-HT1A Affinity (IC50). An excerpt: Affinity for the serotonin 5-HT1A receptor was established by assaying the test compound's ability to displace [^3H]-8-OH-DPAT from its binding site on the receptor complex in rat hippocampal membrane homogenates according to the method described in U.S. Pat. No. 5,482,940.
(In general: Loss of bound radioactivity is the signal in a displacement assay; it reports binding, not function.)

In data set [2] the target is T2, human 5-HT1A receptor (Homo sapiens, UniProt P08908).
T2 construct: expressed in transfected cells; host or cells: CHO cells, stably transfected
T2 sequence (P08908 1-422): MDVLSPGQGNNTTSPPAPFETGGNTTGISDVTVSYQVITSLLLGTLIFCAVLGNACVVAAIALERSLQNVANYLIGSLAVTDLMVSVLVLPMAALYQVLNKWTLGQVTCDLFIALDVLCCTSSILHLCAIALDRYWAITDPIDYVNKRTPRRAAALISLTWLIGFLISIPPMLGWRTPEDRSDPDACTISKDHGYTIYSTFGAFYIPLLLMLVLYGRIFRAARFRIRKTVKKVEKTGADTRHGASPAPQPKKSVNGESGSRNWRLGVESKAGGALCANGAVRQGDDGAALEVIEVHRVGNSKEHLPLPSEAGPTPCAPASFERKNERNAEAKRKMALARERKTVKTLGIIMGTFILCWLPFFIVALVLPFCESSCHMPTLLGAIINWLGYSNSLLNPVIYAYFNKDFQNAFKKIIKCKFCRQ
In words: Stimulation of [35S]-GTPγS binding (5-HT1A agonist activity) in CHO cells stably transfected with human 5-HT1A receptor. It counts as biochemical. The following applies: for 5-HT1A Agonist Activity (GTPγS) % Agonist Activity: relative to the effect of the 5-HT1A full agonist 8-OH-DPAT. An excerpt: Data are presented as the percent of
agonist activity observed relative to the effect obtained with the 5-HT1A full agonist 8-OH-DPAT and the corresponding EC50 value.
In general terms: Binding of GTPγS marks nucleotide exchange on a G protein.

Data set [3] has as its target T2, human 5-HT1A receptor. In words: Block of 8-OH-DPAT-induced stimulation of [35S]-GTPγS binding (5-HT1A antagonist activity) in CHO cells stably transfected with human 5-HT1A receptor. It counts as biochemical. As to conditions: block of 8-OH-DPAT-induced [35S]-GTPγS binding.

Where a name gives a salt, the structure may show the parent alone.

As for `O=C(N[C@H](Cc1ccccc1)CN1CCN(c2ncccn2)CC1)C12CC3CC(CC(C3)C1)C2` [Example 3, (R)-N-[1-(Phenylmethyl)-2-[4-(2-pyrimidinyl)-1-piperazinyl]ethyl]tricyclo[3.3.1.1^3,7)]-decane-1-carboxamide Hemihydrate], the 50% inhibitory concentration (IC50) in data set [1] worked out at 0.43 nM. Also, at human 5-HT1A receptor [2], the response was half-maximal at 2 nM (EC50) and the “5-HT1A Agonist Activity (GTPγS) % Agonist Activity” value came out at 100%.
With `COc1ccccc1N1CCN(C[C@@H](Cc2ccccc2)NC(=O)C23CC4CC(CC(C4)C2)C3)CC1.COc1ccccc1N1CCN(C[C@@H](Cc2ccccc2)NC(=O)C23CC4CC(CC(C4)C2)C3)CC1.O.O=C(O)/C=C/C(=O)O` [Example 6, (R)-Adamantane-1-carboxylic acid [1-(phenylmethyl)-2-[4-(2-methoxyphenyl)-piperazinyl]ethyl]-amide Hemifumarate Hemihydrate], in data set [1], the 50% inhibitory concentration (IC50) is 0.21 nM. For the same molecule, on human 5-HT1A receptor [2], the “5-HT1A Agonist Activity (GTPγS) % Agonist Activity” value stood at 76%.
The matching figures for `COc1ccccc1N1CCN(C[C@H](Cc2ccccc2)NC(=O)C23CC4CC(CC(C4)C2)C3)CC1.COc1ccccc1N1CCN(C[C@H](Cc2ccccc2)NC(=O)C23CC4CC(CC(C4)C2)C3)CC1.O.O.O=C(O)/C=C/C(=O)O` [Example 7, (S)-Adamantane-1-carboxylic acid [1-(phenylmethyl)-2-[4-(2-methoxyphenyl)-piperazinyl]ethyl]-amide Hemifumarate Hydrate]: 0.7 nM and 85%.
With `O=C(N[C@@H](Cc1ccccc1)CN1CCN(c2ncccn2)CC1)C12CC3CC(CC(C3)C1)C2` [Example 4], the melting point lay within 172 to 175 °C. Further, the IC50 in data set [1] was 1 nM. In addition, on human 5-HT1A receptor [2], the half-maximal effective concentration (EC50) was determined as 2.4 nM and the “5-HT1A Agonist Activity (GTPγS) % Agonist Activity” value was found to be 99%.
Turning to `O=C(N[C@H](Cc1ccccc1)CN1CCN(Cc2ccccc2)CC1)C12CC3CC(CC(C3)C1)C2` [Example 1, (R)-N-[1-(Phenylmethyl)-2-[4-(phenylmethyl)-1-piperazinyl]ethyl]tricyclo[3.3.1.1^3,7)]-decane-1-carboxamide Dihydrochloride Dihydrate], the IC50 in data set [1] was determined as 2.3 nM. Also, at human 5-HT1A receptor [3], the “5-HT1A Antagonist Activity (GTPγS) % Antagonist Activity” value came to 100% and the EC50 came out at 36 nM.
For `O=C(N[C@H](Cc1ccccc1)CN1CCN(c2ncccn2)CC1)C12CC3CC(CC(C3)C1)C2` (hydrate or solvate) [Example 3, (R)-N-[1-(Phenylmethyl)-2-[4-(2-pyrimidinyl)-1-piperazinyl]ethyl]tricyclo[3.3.1.1^3,7)]-decane-1-carboxamide Hemihydrate], the melting point is 172 to 175 °C.
In the case of `Cl.Cl.O.O.O=C(N[C@@H](COCc1ccccc1)CN1CCN(Cc2ccccc2)CC1)C12CC3CC(CC(C3)C1)C2` [Example 5, (R)-N-[1-((Phenylmethoxy)methyl)-2-[4-(phenylmethyl)-1-piperazinyl]ethyl]tricyclo-[3.3.1.1^3,7)]-decane-1-carboxamide Dihydrochloride Dihydrate], the IC50 in data set [1] came to 62 nM. At human 5-HT1A receptor [2], this molecule gave a half-maximal effective concentration (EC50) of 77 nM.
In turn, `O=C(N[C@H](Cc1ccccc1)CN1CCN(Cc2ccccc2)CC1)C12CC3CC(CC(C3)C1)C2` (as salt: hydrochloride) (hydrate or solvate) [Example 1, (R)-N-[1-(Phenylmethyl)-2-[4-(phenylmethyl)-1-piperazinyl]ethyl]tricyclo[3.3.1.1^3,7)]-decane-1-carboxamide Dihydrochloride Dihydrate] came in with a melting point of 261 to 263 °C.
In the case of `Cl.Cl.O.O.O=C(N[C@@H](COCc1ccccc1)CN1CCN(Cc2ccccc2)CC1)C12CC3CC(CC(C3)C1)C2` [Example 5], the “5-HT1A Agonist Activity (GTPγS) % Agonist Activity” value at human 5-HT1A receptor [2] is 49%.
Regarding `O=C(N[C@@H](Cc1ccccc1)CN1CCN(Cc2ccccc2)CC1)C12CC3CC(CC(C3)C1)C2` (as salt: hydrochloride) (hydrate or solvate) [Example 2, (S)-N-[1-(Phenylmethyl)-2-[4-(phenylmethyl)-1-piperazinyl]ethyl]tricyclo[3.3.1.1^3,7)]-decane-1-carboxamide Dihydrochloride Dihydrate], the melting point was in the range of 263 to 266 °C.
`O=C(N[C@@H](Cc1ccccc1)CN1CCN(Cc2ccccc2)CC1)C12CC3CC(CC(C3)C1)C2` [Example 2, (S)-N-[1-(Phenylmethyl)-2-[4-(phenylmethyl)-1-piperazinyl]ethyl]tricyclo[3.3.1.1^3,7)]-decane-1-carboxamide Dihydrochloride Dihydrate]: in data set [1], the IC50 came to 0.7 nM. Also, on human 5-HT1A receptor [2], the EC50 was found to be 21 nM and the “5-HT1A Agonist Activity (GTPγS) % Agonist Activity” value was found to be 51%.

The term IC50 denotes the point on the concentration scale where inhibition reaches its midpoint. A word on the EC50: it is the midpoint of the concentration-response curve. High values mean lower potency in that assay, low ones higher potency in that assay. In general, melting point refers to the temperature, or range, at which the solid turns liquid.
